In patent US12077503B2, “Substituted cyclic amides and their use as herbicides” (FMC CORPORATION, priority 2015, dated 2024):

Legend:
Assay type in all cases: in vivo
[1] = system: Kochia (Kochia scoparia); test: Test A preemergence
How it was run: (§1)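 Ratings of 0 (no effect) to 100 (complete control) come from visual comparison with untreated controls roughly 10 d after treatment. Test chemicals, formulated in a non-phytotoxic solvent mixture with surfactant, were applied either as a preemergence directed soil spray on seeded soil or postemergence to one- to two-leaf plants 2 to 10 cm tall.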

[2] = system: barnyardgrass (Echinochloa crus-galli); test: Test A preemergence
How it was run: as §1

[3] = system: giant foxtail (Setaria faberii); test: Test A preemergence
How it was run: as §1

[4] = system: pigweed (Amaranthus retroflexus); test: Test A preemergence; conditions: for Plant response rating, Pigweed: preemergence
[5] = system: ragweed (common ragweed, Ambrosia elatior); test: Test A preemergence; conditions: for Plant response rating, Ragweed: preemergence
How it was run: as §1

[6] = system: ryegrass, Italian (Italian ryegrass, Lolium multiflorum); test: Test A preemergence; conditions: for Plant response rating, Ryegrass, Italian: preemergence
How it was run: as §1

[7] = system: Galium (catchweed bedstraw, Galium aparine); test: Test A postemergence; conditions: for Plant response rating, Galium: postemergence, 0 to 100 scale (0 no effect, 100 complete control)
How it was run: as §1

[8] = system: Kochia (Kochia scoparia); test: Test A postemergence; conditions: for Plant response rating, Kochia: postemergence, 0 to 100 scale (0 no effect, 100 complete control)
How it was run: as §1

[9] = system: barnyardgrass (Echinochloa crus-galli); test: Test A postemergence; conditions: for Plant response rating, Barnyardgrass: postemergence, 0 to 100 scale (0 no effect, 100 complete control)
How it was run: as §1

[10] = system: blackgrass (Alopecurus myosuroides); test: Test A postemergence; conditions: for Plant response rating, Blackgrass: postemergence, 0 to 100 scale (0 no effect, 100 complete control)
How it was run: as §1

[11] = system: corn (Zea mays); test: Test A postemergence; conditions: for Plant response rating, Corn: postemergence, 0 to 100 scale (0 no effect, 100 complete control)
How it was run: as §1

[12] = system: giant foxtail (Setaria faberii); test: Test A postemergence; conditions: for Plant response rating, Foxtail, Giant: postemergence, 0 to 100 scale (0 no effect, 100 complete control)
How it was run: as §1

[13] = system: pigweed (Amaranthus retroflexus); test: Test A postemergence; conditions: for Plant response rating, Pigweed: postemergence, 0 to 100 scale (0 no effect, 100 complete control)
How it was run: as §1

[14] = system: ragweed (common ragweed, Ambrosia elatior); test: Test A postemergence; conditions: for Plant response rating, Ragweed: postemergence, 0 to 100 scale (0 no effect, 100 complete control)
How it was run: as §1

[15] = system: ryegrass, Italian (Italian ryegrass, Lolium multiflorum); test: Test A postemergence; conditions: for Plant response rating, Ryegrass, Italian: postemergence, 0 to 100 scale (0 no effect, 100 complete control)
How it was run: as §1

[16] = system: wheat (Triticum aestivum); test: Test A postemergence; conditions: for Plant response rating, Wheat: postemergence, 0 to 100 scale (0 no effect, 100 complete control)
How it was run: as §1

[17] = system: barnyardgrass (Echinochloa crus-galli); test: Test B flooded paddy test
How it was run: (§2)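 Visual ratings (0 none to 100 complete control) are relative to untreated plants, taken 13–15 d after treatment in a greenhouse. Test material went straight into floodwater standing 3 cm above the soil, kept constant, on plants at the 2-leaf stage.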

[18] = system: ducksalad (Heteranthera limosa); test: Test B flooded paddy test
How it was run: as §2

[19] = system: rice (Oryra sativa); test: Test B flooded paddy test
How it was run: as §2

[20] = system: sedge, umbrella (small-flower umbrella sedge, Cyperus difformis); test: Test B flooded paddy test
How it was run: as §2

[21] = 125 g ai/ha, Preemergence, visual injury after approximately 10 d, 0 to 100 scale where 0 is no effect and 100 is complete control
[22] = 500 g ai/ha, preemergence, 0 to 100 scale, 0 = no effect, 100 = complete control
[23] = 125 g ai/ha, visual rating after approx. 10 d, 0 to 100 scale where 0 is no effect and 100 is complete control
[24] = 500 g ai/ha, 0 to 100 scale, 0 = no effect, 100 = complete control
[25] = 125 g ai/ha, visual injury after approximately 10 d
[26] = 500 g ai/ha, visual injury, approx. 10 d
[27] = 125 g ai/ha, visual rating after approx. 10 d
[28] = Flood, 250 g ai/ha, 0 to 100 scale where 0 is no effect and 100 is complete control, 13 to 15 d
[29] = Galium, post-emergence, 240 h, read-out: Plant response rating, Galium
[30] = Bassia scoparia, post-emergence, 240 h, read-out: Plant response rating, Kochia
[31] = Echinochloa crus-galli, post-emergence, 240 h, read-out: Plant response rating, Barnyardgrass
[32] = Alopecurus myosuroides, post-emergence, 240 h, read-out: Plant response rating, Blackgrass
[33] = Zea mays, post-emergence, 240 h, read-out: Plant response rating, Corn
[34] = Setaria faberi, post-emergence, 240 h, read-out: Plant response rating, Foxtail, Giant
[35] = Amaranthus retroflexus, post-emergence, 240 h, read-out: Plant response rating, Pigweed
[36] = Ambrosia artemisiifolia, post-emergence, 240 h, read-out: Plant response rating, Ragweed
[37] = Lolium multiflorum, post-emergence, 240 h, read-out: Plant response rating, Ryegrass, Italian
[38] = Triticum aestivum, post-emergence, 240 h, read-out: Plant response rating, Wheat

## O=C(Nc1ccccc1F)C1C(=O)N(CC2CC2)CC1c1cccc(C(F)(F)F)c1 (stereo not drawn) [Compound 682]
[1]; [21]
  Plant response rating, Kochia: 0
[1]; [22]
  Plant response rating, Kochia: 0
[2]; [21]
  Plant response rating, Barnyardgrass: 0
[2]; [22]
  Plant response rating, Barnyardgrass: 0
[3]; [21]
  Plant response rating, Foxtail, Giant: 90
[3]; [22]
  Plant response rating, Foxtail, Giant: 90
[4]; [23]
  Plant response rating, Pigweed: 0
[4]; [24]
  Plant response rating, Pigweed: 0
[5]; [23]
  Plant response rating, Ragweed: 0
[5]; [24]
  Plant response rating, Ragweed: 0
[6]; [23]
  Plant response rating, Ryegrass, Italian: 20
[6]; [24]
  Plant response rating, Ryegrass, Italian: 30
[7]; [25]
  Plant response rating, Galium: 0
[7]; [26]
  Plant response rating, Galium: 0
[8]; [25]
  Plant response rating, Kochia: 0
[8]; [26]
  Plant response rating, Kochia: 0
[9]; [27]
  Plant response rating, Barnyardgrass: 0
[9]; [26]
  Plant response rating, Barnyardgrass: 20
[10]; [27]
  Plant response rating, Blackgrass: 0
[10]; [26]
  Plant response rating, Blackgrass: 0
[11]; [25]
  Plant response rating, Corn: 0
[11]; [26]
  Plant response rating, Corn: 0
[12]; [25]
  Plant response rating, Foxtail, Giant: 20
[12]; [26]
  Plant response rating, Foxtail, Giant: 80
[13]; [25]
  Plant response rating, Pigweed: 0
[13]; [26]
  Plant response rating, Pigweed: 0
[14]; [25]
  Plant response rating, Ragweed: 0
[14]; [26]
  Plant response rating, Ragweed: 0
[15]; [25]
  Plant response rating, Ryegrass, Italian: 0
[15]; [26]
  Plant response rating, Ryegrass, Italian: 0
[16]; [25]
  Plant response rating, Wheat: 0
[16]; [26]
  Plant response rating, Wheat: 20
[17]; [28]
  Plant response rating, Barnyardgrass: 0
[18]; [28]
  Plant response rating, Ducksalad: 0
[19]; [28]
  Plant response rating, Rice: 0
[20]; [28]
  Plant response rating, Sedge, Umbrella: 0

## COc1ccc([C@H]2CN(C)C(=O)[C@@H]2C(=O)Nc2ccccc2SC)cc1F [Compound 1022]
[1]; Bassia scoparia, pre-emergence, 240 h, read-out: Kochia plant response rating
  pest or weed control at 500 g/ha: 80%
[1]; Bassia scoparia, pre-emergence, 240 h, read-out: Kochia plant response rating (0 to 100 scale, 0 is no effect, 100 is complete control)
  pest or weed control at 125 g/ha: 70%
[2]; Echinochloa crus-galli, pre-emergence, 240 h, read-out: Barnyardgrass plant response rating
  pest or weed control at 500 g/ha: 100%
[2]; Echinochloa crus-galli, pre-emergence, 240 h, read-out: Barnyardgrass plant response rating (0 to 100 scale, 0 is no effect, 100 is complete control)
  pest or weed control at 125 g/ha: 60%
[3]; Setaria faberi, pre-emergence, 240 h, read-out: Foxtail, Giant plant response rating
  pest or weed control at 500 g/ha: 100%
[3]; Setaria faberi, pre-emergence, 240 h, read-out: Foxtail, Giant plant response rating (0 to 100 scale, 0 is no effect, 100 is complete control)
  pest or weed control at 125 g/ha: 100%
[4]; Amaranthus retroflexus, pre-emergence, 240 h, read-out: Pigweed plant response rating
  pest or weed control at 500 g/ha: 70%
[4]; Amaranthus retroflexus, pre-emergence, 240 h, read-out: Pigweed plant response rating (0 to 100 scale, 0 is no effect, 100 is complete control)
  pest or weed control at 125 g/ha: 30%
[5]; Ambrosia artemisiifolia, pre-emergence, 240 h, read-out: Ragweed plant response rating
  pest or weed control at 500 g/ha: 0%
[5]; Ambrosia artemisiifolia, pre-emergence, 240 h, read-out: Ragweed plant response rating (0 to 100 scale, 0 is no effect, 100 is complete control)
  pest or weed control at 125 g/ha: 0%
[6]; Lolium multiflorum, pre-emergence, 240 h, read-out: Ryegrass, Italian plant response rating
  pest or weed control at 500 g/ha: 50%
[6]; Lolium multiflorum, pre-emergence, 240 h, read-out: Ryegrass, Italian plant response rating (0 to 100 scale, 0 is no effect, 100 is complete control)
  pest or weed control at 125 g/ha: 0%
[7]; [29]
  pest or weed control at 125 g/ha: 30%
  pest or weed control at 500 g/ha: 50%
[8]; [30]
  pest or weed control at 125 g/ha: 30%
  pest or weed control at 500 g/ha: 60%
[9]; [31]
  pest or weed control at 125 g/ha: 60%
  pest or weed control at 500 g/ha: 100%
[10]; [32]
  pest or weed control at 125 g/ha: 0%
  pest or weed control at 500 g/ha: 0%
[11]; [33]
  plant injury at 125 g/ha: 0%
  plant injury at 500 g/ha: 20%
[12]; [34]
  pest or weed control at 125 g/ha: 50%
  pest or weed control at 500 g/ha: 70%
[13]; [35]
  pest or weed control at 125 g/ha: 0%
  pest or weed control at 500 g/ha: 0%
[14]; [36]
  pest or weed control at 125 g/ha: 0%
  pest or weed control at 500 g/ha: 0%
[15]; [37]
  pest or weed control at 125 g/ha: 0%
  pest or weed control at 500 g/ha: 30%
[16]; [38]
  plant injury at 125 g/ha: 0%
  plant injury at 500 g/ha: 30%
[17]; Echinochloa crus-galli, read-out: Barnyardgrass plant response rating
  pest or weed control at 250 g/ha: 0%
[18]; Heteranthera limosa, read-out: Ducksalad plant response rating
  pest or weed control at 250 g/ha: 75%
[19]; Oryza sativa, read-out: Rice plant response rating
  pest or weed control at 250 g/ha: 0%
[20]; Cyperus difformis, read-out: Sedge, Umbrella plant response rating
  pest or weed control at 250 g/ha: 0%
